The inhibition is the relative decrease from the control value, in per cent.

For the assay, the target named is T1, rat B1R (bradykinin receptor 1) (Rattus norvegicus, UniProt P97583).
T1 construct: expressed in transfected cells; host or cells: CHO K1 cells
T1 sequence (P97583 1-337): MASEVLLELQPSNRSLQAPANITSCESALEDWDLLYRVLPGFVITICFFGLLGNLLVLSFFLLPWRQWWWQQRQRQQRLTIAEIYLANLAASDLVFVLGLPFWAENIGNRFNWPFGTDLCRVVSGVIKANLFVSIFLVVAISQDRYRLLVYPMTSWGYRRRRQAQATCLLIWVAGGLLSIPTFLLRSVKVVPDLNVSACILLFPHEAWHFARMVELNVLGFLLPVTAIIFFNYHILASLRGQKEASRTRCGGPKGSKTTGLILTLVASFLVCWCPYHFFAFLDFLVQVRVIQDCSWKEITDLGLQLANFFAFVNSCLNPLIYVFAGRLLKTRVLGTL
Nature of the assay: FLIPR Ca2+ assay (Fluo-4) on CHO K1 cells stably transfected with the B1R gene of the rat (rB1R cells): % inhibition at 10 μM / IC50, agonist Des-Arg9-bradykinin. To be noted: CHO-K1, rat B1R. It is filed as cell-based. Put shortly: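 Loading with Fluo-4 occurs for 60 min at 37 °C, or alternatively in buffer A, before FLIPR measurement. Compounds are applied, incubated 10–20 min, and then the EC80 agonist is added. Antagonism appears as reduced peak Ca2+ signal relative to maximal inhibition.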
`O=C(NC1CCc2ccc(C(=O)N3CCC4(CCN(Cc5cccnc5)CC4)CC3)cc21)c1cc(C(F)(F)F)ccc1Cl` (stereo not drawn) [IND_CC-642, 2-Chloro-N-[6-[9-(pyridin-3-yl-methyl)-3,9-diazaspiro[5.5]undecane-3-carbonyl]-2,3-dihydro-1H-inden-1-yl]-5-(trifluoromethyl)-benzamide] yielded an inhibition at 10 µM of 77%.

On to `Cn1cccc1CN1CCC2(CC1)CCN(C(=O)c1ccc3c(c1)C(NC(=O)c1cc(C(F)(F)F)ccc1Cl)CC3)CC2` (stereo not drawn) [IND_CC-643, 2-Chloro-N-[6-[9-[(1-methyl-1H-pyrrol-2-yl)-methyl]-3,9-diazaspiro[5.5]-undecane-3-carbonyl]-2,3-dihydro-1H-inden-1-yl]-5-(trifluoromethyl)benzamide], for which the inhibition at 10 µM came to 78%.

As to `O=C(NC1CCc2ccc(C(=O)N3CCC4(CCN(Cc5c(F)cccc5F)CC4)CC3)cc21)c1cc(C(F)(F)F)ccc1Cl` (stereo not drawn) [IND_CC-644, 2-Chloro-N-[6-[9-[(2,6-difluoro-phenyl)-methyl]-3,9-diazaspiro[5.5]undecane-3-carbonyl]-2,3-dihydro-1H-inden-1-yl]-5-(trifluoromethyl)-benzamide], the inhibition at 10 µM is 59%.

`O=C(NC1CCc2ccc(C(=O)N3CCC4(CCN(Cc5ccc(F)c(F)c5)CC4)CC3)cc21)c1cc(C(F)(F)F)ccc1Cl` (stereo not drawn) [IND_CC-645, 2-Chloro-N-[6-[9-[(3,4-difluoro-phenyl)-methyl]-3,9-diazaspiro[5.5]undecane-3-carbonyl]-2,3-dihydro-1H-inden-1-yl]-5-(trifluoromethyl)-benzamide]: the inhibition at 10 µM was found to be 78%.

For `O=C(NC1CCc2ccc(C(=O)N3CCC4(CCN(Cc5cc(F)ccc5F)CC4)CC3)cc21)c1cc(C(F)(F)F)ccc1Cl` (stereo not drawn) [IND_CC-646, 2-Chloro-N-[6-[9-[(2,5-difluoro-phenyl)-methyl]-3,9-diazaspiro[5.5]undecane-3-carbonyl]-2,3-dihydro-1H-inden-1-yl]-5-(trifluoromethyl)-benzamide], testing at 10 µM gave an inhibition of 66%.

`O=C(NC1CCc2ccc(C(=O)N3CCC4(CCN(Cc5ccc(F)cc5F)CC4)CC3)cc21)c1cc(C(F)(F)F)ccc1Cl` (stereo not drawn) [IND_CC-647, 2-Chloro-N-[6-[9-[(2,4-difluoro-phenyl)-methyl]-3,9-diazaspiro[5.5]undecane-3-carbonyl]-2,3-dihydro-1H-inden-1-yl]-5-(trifluoromethyl)-benzamide] came in with an inhibition at 10 µM of 73%.

`COc1ccc(CN2CCC3(CC2)CCN(C(=O)c2ccc4c(c2)C(NC(=O)c2cc(C(F)(F)F)ccc2Cl)CC4)CC3)cc1F` (stereo not drawn) [IND_CC-648, 2-Chloro-N-[6-[9-[(3-fluoro-4-methoxy-phenyl)-methyl]-3,9-diazaspiro[5.5]-undecane-3-carbonyl]-2,3-dihydro-1H-inden-1-yl]-5-(trifluoromethyl)benzamide] showed an inhibition at 10 µM of 78%.

`COc1cccc(F)c1CN1CCC2(CC1)CCN(C(=O)c1ccc3c(c1)C(NC(=O)c1cc(C(F)(F)F)ccc1Cl)CC3)CC2` (stereo not drawn) [IND_CC-649, 2-Chloro-N-[6-[9-[(2-fluoro-6-methoxy-phenyl)-methyl]-3,9-diazaspiro[5.5]-undecane-3-carbonyl]-2,3-dihydro-1H-inden-1-yl]-5-(trifluoromethyl)benzamide] returned an inhibition at 10 µM of 76%.

Regarding `N#Cc1ccc(CN2CCC3(CC2)CCN(C(=O)c2ccc4c(c2)C(NC(=O)c2cc(Cl)ccc2F)CC4)C3)cc1` (stereo not drawn) [IND_CC-650, 5-Chloro-N-[6-[8-[(4-cyano-phenyl)-methyl]-2,8-diazaspiro[4.5]decane-2-carbonyl]-2,3-dihydro-1H-inden-1-yl]-2-fluoro-benzamide], the inhibition at 10 µM is 54%.

For `N#Cc1cccc(CN2CCC3(CC2)CCN(C(=O)c2ccc4c(c2)C(NC(=O)c2cc(Cl)ccc2F)CC4)C3)c1` (stereo not drawn) [IND_CC-651, 5-Chloro-N-[6-[8-[(3-cyano-phenyl)-methyl]-2,8-diazaspiro[4.5]decane-2-carbonyl]-2,3-dihydro-1H-inden-1-yl]-2-fluoro-benzamide], the inhibition at 10 µM amounted to 76%.

As to `O=C(NC1CCc2ccc(C(=O)N3CCC4(CCN(Cc5csnn5)CC4)CC3)cc21)c1cc(Cl)ccc1F` (stereo not drawn) [IND_CC-652, 5-Chloro-2-fluoro-N-[6-[9-([1,2,3]thiadiazol-4-yl-methyl)-3,9-diazaspiro[5.5]undecane-3-carbonyl]-2,3-dihydro-1H-inden-1-yl]-benzamide], the inhibition at 10 µM worked out at 53%.

`N#Cc1ccc(CN2CCC3(CC2)CCN(C(=O)c2ccc4c(c2)C(NC(=O)c2cc(Cl)ccc2F)CC4)CC3)cc1` (stereo not drawn) [IND_CC-653, 5-Chloro-N-[6-[9-[(4-cyano-phenyl)-methyl]-3,9-diazaspiro[5.5]undecane-3-carbonyl]-2,3-dihydro-1H-inden-1-yl]-2-fluoro-benzamide] had an inhibition at 10 µM of 64%.

In turn, `N#Cc1cccc(CN2CCC3(CC2)CCN(C(=O)c2ccc4c(c2)C(NC(=O)c2cc(Cl)ccc2F)CC4)CC3)c1` (stereo not drawn) [IND_CC-654, 5-Chloro-N-[6-[9-[(3-cyano-phenyl)-methyl]-3,9-diazaspiro[5.5]undecane-3-carbonyl]-2,3-dihydro-1H-inden-1-yl]-2-fluoro-benzamide] had an inhibition at 10 µM of 60%.

`Cc1nc[nH]c1CN1CCC2(CC1)CCN(C(=O)c1ccc3c(c1)C(NC(=O)c1cc(C(F)(F)F)ccc1Cl)CC3)C2` (stereo not drawn) [IND_CC-655, 2-Chloro-N-[6-[8-[(5-methyl-3H-imidazol-4-yl)-methyl]-2,8-diazaspiro[4.5]-decane-2-carbonyl]-2,3-dihydro-1H-inden-1-yl]-5-(trifluoromethyl)-benzamide] registered an inhibition at 10 µM of 59%.

Turning to `O=C(NC1CCc2ccc(C(=O)N3CCC4(CCN(Cc5csnn5)CC4)C3)cc21)c1cc(C(F)(F)F)ccc1Cl` (stereo not drawn) [IND_CC-656, 2-Chloro-N-[6-[8-([1,2,3]thiadiazol-4-yl-methyl)-2,8-diazaspiro[4.5]decane-2-carbonyl]-2,3-dihydro-1H-inden-1-yl]-5-(trifluoromethyl)-benzamide], the inhibition at 10 µM was determined as 51%.

On to `Cc1noc(C)c1CN1CCC2(CC1)CCN(C(=O)c1ccc3c(c1)C(NC(=O)c1cc(C(F)(F)F)ccc1Cl)CC3)C2` (stereo not drawn) [IND_CC-657, 2-Chloro-N-[6-[8-[(3,5-dimethyl-isoxazol-4-yl)-methyl]-2,8-diazaspiro[4.5]-decane-2-carbonyl]-2,3-dihydro-1H-inden-1-yl]-5-(trifluoromethyl)-benzamide], for which 10 µM produced 66% inhibition.

As to `N#Cc1ccc(CN2CCC3(CC2)CCN(C(=O)c2ccc4c(c2)C(NC(=O)c2cc(C(F)(F)F)ccc2Cl)CC4)C3)cc1` (stereo not drawn) [IND_CC-658, 2-Chloro-N-[6-[8-[(4-cyano-phenyl)-methyl]-2,8-diazaspiro[4.5]decane-2-carbonyl]-2,3-dihydro-1H-inden-1-yl]-5-(trifluoromethyl)-benzamide], the inhibition at 10 µM was found to be 51%.

For the compound `N#Cc1cccc(CN2CCC3(CC2)CCN(C(=O)c2ccc4c(c2)C(NC(=O)c2cc(C(F)(F)F)ccc2Cl)CC4)C3)c1` (stereo not drawn) [IND_CC-659, 2-Chloro-N-[6-[8-[(3-cyano-phenyl)-methyl]-2,8-diazaspiro[4.5]decane-2-carbonyl]-2,3-dihydro-1H-inden-1-yl]-5-(trifluoromethyl)-benzamide], the inhibition at 10 µM was 81%.

The values above are taken from US8455475B2 (Gruenenthal GmbH, priority 2009, dated 2013).
